Results as given in patent publication US11976083B2, “Inhibitors of peptidylarginine deiminases” (Gilead Sciences, Inc., priority 2020, dated 2024).

Target: T1, human PAD4 (Homo sapiens, UniProt Q9UM07)
T1 construct: human PAD4 (NM_012387), A2-P663, was PCR amplified; His-SUMO (N, cleaved yes); made in house; host or cells: E. coli BL21(DE3)
Experiment: In vitro PAD4 BAEE biochemical assay
Settings: BAEE substrate 3 mM, 5 nM PAD4, 2 mM calcium chloride; geometric mean of multiple experiments
Procedure, shortened: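 Recombinant human PAD4 (5 nM final) with 2 mM CaCl2 was preincubated with compound 30 min at 25 °C in MOPS buffer pH 7.6, then reacted with 3 mM BAEE for 2 h at 25 °C. After EDTA stop, released ammonia was detected by o-phthalaldehyde/DTT fluorescence (ex 405/em 535 nm); IC50 from four-parameter fit, geometric mean.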

T1 sequence (Q9UM07 2-663): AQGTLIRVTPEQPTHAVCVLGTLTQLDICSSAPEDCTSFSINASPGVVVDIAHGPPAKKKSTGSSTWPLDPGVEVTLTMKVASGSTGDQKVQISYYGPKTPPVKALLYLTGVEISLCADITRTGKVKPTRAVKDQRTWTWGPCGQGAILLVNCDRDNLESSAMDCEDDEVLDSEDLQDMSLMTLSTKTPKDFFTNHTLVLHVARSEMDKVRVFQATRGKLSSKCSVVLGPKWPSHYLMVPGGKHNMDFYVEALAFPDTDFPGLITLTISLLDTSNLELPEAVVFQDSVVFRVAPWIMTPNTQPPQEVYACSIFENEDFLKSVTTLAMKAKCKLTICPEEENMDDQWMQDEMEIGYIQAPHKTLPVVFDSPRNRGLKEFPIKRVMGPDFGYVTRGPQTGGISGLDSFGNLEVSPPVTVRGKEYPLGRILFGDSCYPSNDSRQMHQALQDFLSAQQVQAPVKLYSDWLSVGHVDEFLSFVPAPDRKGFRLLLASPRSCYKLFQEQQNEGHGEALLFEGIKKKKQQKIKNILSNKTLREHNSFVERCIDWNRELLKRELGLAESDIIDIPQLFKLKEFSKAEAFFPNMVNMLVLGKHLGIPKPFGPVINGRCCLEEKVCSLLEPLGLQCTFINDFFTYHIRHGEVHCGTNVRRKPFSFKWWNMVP

SMILES | IC50 [nM]
[2H]C1([2H])CCCC[C@@H]2C[C@H]2C(=O)N[C@H](C)c2ccc3cc(-c4nc5cc(C(=O)N6C[C@H](N)[C@@H]7CC[C@H]6C7)cc(F)c5n4C4CC4)n1c3n2 [Example 482, (2~{R},5~{R},7~{R})-14-[5-[(1~{S},4~{R},5~{R})-4-amino-2-azabicyclo[3.2.1]octane-2-carbonyl]-1-cyclopropyl-7-fluoro-benzimidazol-2-yl]-12,12-dideuterio-2-methyl-3,13,19-triazatetracyclo[11.5.2.0^{5,7}.0^{16,20}] icosa-1(19),14,16(20),17-tetraen-4-one] | 26
C[C@H]1NC(=O)c2nccnc2CCCC(F)(F)Cn2c(-c3nc4cc(C(=O)N5C[C@H](N)[C@@H]6CC[C@H]5C6)cc(F)c4n3C3CC3)cc3ccc1nc32 [Example 483, (2~{R})-17-[5-[(1~{S},4~{R},5~{R})-4-amino-2-azabicyclo[3.2.1]octane-2-carbonyl]-1-cyclopropyl-7-fluoro-benzimidazol-2-yl]-14,14-difluoro-2-methyl-3,6,9,16,22-pentazatetracyclo[14.5.2.0^{5,10}.0^{19, 23}]tricosa-1(22),5(10),6,8,17,19(23),20-heptaen-4-one] | 33
COc1cc(C(=O)N2C[C@H](N)[C@@H]3CC[C@H]2C3)cc2nc(-c3cc4ccc5nc4n3CCCCCc3nccnc3C(=O)N[C@@H]5C)n(C)c12 [Example 484, (2~{R})-17-[5-[(1~{S},4~{R},5~{R})-4-amino-2-azabicyclo[3.2.1]octane-2-carbonyl]-7-methoxy-1-methyl-benzimidazol-2-yl]-2-methyl-3,6,9,16,22-pentazatetracyclo[14.5.2.0^{5,10}.0^{19, 23}]tricosa-1(22),5(10),6,8,17,19(23),20-heptaen-4-one] | 44
C[C@H]1NC(=O)c2nccnc2CCCCCn2c(-c3nc4cc(C(=O)N5C[C@H](N)[C@@H]6CC[C@H]5C6)cc(F)c4n3C3CC3)cc3ccc1nc32 [Example 485, (2~{R})-17-[5-[(1~{S),4~{R},5~{R})-4-amino-2-azabicyclo[3.2.1]octane-2-carbonyl]-1-cyclopropyl-7-fluoro-benzimidazol-2-yl]-2-methyl-3,6,9,16,22-pentazatetracyclo[14.5.2.0^{5,10}.0^{19, 23}]tricosa-1(22),5(10),6,8,17,19(23),20-heptaen-4-one] | 29
C[C@H]1NC(=O)C(C)(C)CCCCCCn2c(-c3nc4cc(C(=O)N5[C@H]6CC[C@@H]5[C@H](N)C6)c(F)cc4n3C3CC3)cc3ccc1nc32 [Example 488, (11~{R})-17-[5-[(1~ {R},2~{R},4~{S})-2-amino-7-azabicyclo [2.2.1]heptane-7-carbonyl]-1-cyclopropyl-6-fluoro-benzimidazol-2-yl]-8,8,11-trimethyl-1,10,19-triazatricyclo [10.5.2.0^{15,18}]nonadeca-12(19),13,15(18),16-tetraen-9-one] | 64
COc1cc(C(=O)N2CC[C@@H](OCC(F)F)[C@@H](N)C2)cc2nc(-c3cc4ccc5nc4n3CCCCC[C@@H]3C[C@H]3C(=O)N[C@@H]5C)n(C)c12 [Example 489, (2~{R},5~{R}, 7~{R})-14-[5-[(3~{S},4~{R})-3-amino-4-(2,2-difluoroethoxy)piperidine-1-carbonyl]-7-methoxy-1-methyl-benzimidazol-2-yl]-2-methyl-3,13,19-triazatetracyclo [11.5.2.0^{5,7}.0^{16,20}] icosa-1(19),14,16(20), 17-tetraen-4-one] | 78
COc1cc(C(=O)N2CC[C@@H](OCC3CC3)[C@@H](N)C2)cc2nc(-c3cc4ccc5nc4n3CCCCC[C@@H]3C[C@H]3C(=O)N[C@@H]5C)n(C)c12 [Example 490, (2~{R},5~{R},7~{R})-14-[5-[(3~{S},4~{R})-3-amino-4-(cyclopropylmethoxy)piperidine-1-carbonyl]-7-methoxy-1-methyl-benzimidazol-2-yl]-2-methyl-3,13,19-triazatetracyclo [11.5.2.0^{5,7}.0^{16,20}] icosa-1(19),14,16(20), 17-tetraen-4-one] | 86
COc1cc(C(=O)N2CC[C@@H](OC(F)F)[C@@H](N)C2)cc2nc(-c3cc4ccc5nc4n3CCCCCc3ccccc3C(=O)N[C@@H]5C)n(C)c12 [Example 491, (2~{R})-17-[5-[(3~ {S},4~{R})-3-amino-4-(difluoromethoxy)piperidine-1-carbonyl]-7-methoxy-1-methyl-benzimidazol-2-yl]-2-methyl-3,16,22-triazatetracyclo [14.5.2.0^{5,10}.0^{19,23}] tricosa-1(22),5(10), 6,8,17,19(23),20-heptaen-4-one] | 253
COc1cc(C(=O)N2CC[C@@H](OC(F)F)[C@@H](N)C2)cc2nc(-c3cc4ccc5nc4n3CCCCCc3cnccc3C(=O)N[C@@H]5C)n(C)c12 [Example 492, (2~{R})-17-[5-[(3~{S}, 4~{R})-3-amino-4-(difluoromethoxy)piperidine-1-carbonyl]-7-methoxy-1-methyl-benzimidazol-2-yl]-2-methyl-3,8,16,22-tetrazatetracyclo [14.5.2.0^{5,10}.0^{19,23}] tricosa-1(22),5(10), 6,8,17,19(23),20-heptaen-4-one] | 156
COCCO[C@@H]1CCN(C(=O)c2cc(OC)c3c(c2)nc(-c2cc4ccc5nc4n2CCCCC[C@@H]2C[C@H]2C(=O)N[C@@H]5C)n3C)C[C@@H]1N [Example 493, (2~{R},5~{R},7~{R})-14-[5-[(3~{S},4~{R})-3-amino-4-(2-methoxyethoxy)piperidine-1-carbonyl]-7-methoxy-1-methyl-benzimidazol-2-yl]-2-methyl-3,13,19-triazatetracyclo [11.5.2.0^{5,7}.0^{16,20}] icosa-1(19),14,16(20), 17-tetraen-4-one] | 76
COc1cc(C(=O)N2CC[C@@H](OCC34CC(F)(C3)C4)[C@@H](N)C2)cc2nc(-c3cc4ccc5nc4n3CCCCC[C@@H]3C[C@H]3C(=O)N[C@@H]5C)n(C)c12 [Example 494] | 136
COc1cc(C(=O)N[C@H]2CNCCC2(F)F)cc2nc(-c3cc4ccc5nc4n3CCC/C=C/c3ccccc3C(=O)N[C@@H]5C)n(C)c12 [Example 495, ~{N}-[(3~{S})-4,4-difluoro-3-piperidyl]-7-methoxy-1-methyl-2-[(2~{R},11~{E})-2-methyl-4-oxo-3,16,22-triazatetracyclo[14.5.2.0^ {5,10}.0^{19,23}]tricosa-1(22),5(10),6,8,11, 17,19(23),20-octaen-17-yl] benzimidazole-5-carboxamide] | 518
COc1cc(C(=O)N2CC[C@@H](OC)[C@@H](N)C2)cc2nc(-c3cc4ccc5nc4n3CCC/C=C/c3ccccc3C(=O)N[C@@H]5C)n(C)c12 [Example 496, (2~{R},11~{E})-17-[5-[(3~{S},4~{R})-3-amino-4-methoxy-piperidine-1-carbonyl]-7-methoxy-1-methyl-benzimidazol-2-yl]-2-methyl-3,16,22-triazatetracyclo[14.5.2.0^ {5,10).0^{19,23}]tricosa-1(22),5(10),6,8,11,17,19 (23),20-octaen-4-one] | 125
C[C@H]1NS(=O)(=O)CCCC/C=C/Cn2c(-c3nc4cc(C(=O)N[C@H]5CNCC[C@@H]5F)c(F)cc4n3C)cc3ccc1nc32 [Example 497, 6-fluoro-~{N}-[(3~ {S},4~{S})-4-fluoro-3-piperidyl]-1-methyl-2-[(3~{E},11~{R})-11-methyl-9,9-dioxo-9$1^6-thia-1,10,19-triazatricyclo[10.5.2.0^{15,18}]nonadeca-3,12(19),13,15 (18),16-pentaen-17-yl]benzimidazole-5-carboxamide] | 54
